# Experiments:
# [1] = system: HSP72; assay: Heat stress induced HSP72 production in 3T3 cells; type: cell-based, mouse; conditions: 10^−5 M
# Procedure: From the applied cells the 3T3 and L-929 mouse fibroblasts were cultured in MEM medium and grew in monolayer, the U-937 human leukemia cells were maintained in RPMI-1640 medium, in suspension culture, while the HeLa human epithelial cells were cultured in DMEM medium and in monolayer form. Cell cultures were maintained as described in example 6.2 (a) with the difference that cells were cultured in the above mentioned culture mediums.
# Experiments were carried out applying stress before and after the drug treatment. Stress was provoked by heat, by chemical agent, HgCl2 treatment. The test compounds were applied in the treatments at the 10^−5 M concentration.
# The experiments on 3T3 cell applying heat stress were performed as described in the 6.2. (c) point of example 6, with the difference that stress was induced by a 30 min. exposure at 43° C. temperature and treatment with the test compounds was performed 15 min. before or 100 min. after the heat stress.
# Immunodetection was carried out using the HSP72 specific SPA 810 (StressGene) primary and the horse-radish peroxidase conjugated A9044 (Sigma) secondary antibodies. Densitometric evaluation was performed by a LKB Ultrascan XL densitometer.
# [2] = system: Hsp72; assay: Heat stress induced hsp72 expression in rat testicular explant; type: cell-based; conditions: 10^−5 M, 15 min. before 43° C. 30 min.
# Procedure: Testis of CFY rats weighing of 200 g were removed in sterile conditions and the released testicular tubuli were suspended in 10% fetal bovine serum containing MEM culture medium in that way that five ml suspension contained 50-100 mg tissue. The explants were incubated in 5% CO2 containing humidified air at 37° C. for one hour, then the cultures were treated with 10^−5 M concentration of the tested compounds. After a further incubation for 15 min. at 37° C., explants were exposed to heat shock at 43° C. for 30 min. The amount of the induced hsp72 was measured after a further 6 hours incubation at 37° C.
# [3] = system: Male Sprague-Dawley rats; assay: Protection against cardiac ischaemia: survival after 5 minutes coronary occlusion and reperfusion; type: in vivo, rat; conditions: i.v. 1 mg/kgbw, 5 min. before the occlusion; non-treated control 10
# Procedure: Male Sprague-Dawley rats (380-450 g b.w.) were anaesthetized with sodiumpentobarbital (Nembutal 60 mg/kg body weight, i.p.) and artificially ventilated with room air (2 ml/100 g; 54 stroke/minutes) via tracheotomy. The right carotid artery was catheterized and connected to a pressure transducer (BPR-01, Stoelting) for the measurement of systemic arterial blood pressure (BP) by means of a preamplifier (Hg-02, Experimetria). Hydroxylamine derivatives disclosed in Example 5 were administered via the venous cannule to jugular vein (i.v.) and orally (p.o.). Heart rate (HR) was measured by a cardiotachometer (HR-01, Experimetria). The electrocardiogram (ECG standard lead II) was recorded on a devices recorder (MR-12, Medicor) by means of subcutaneous steel needles electrodes. The chest was opened by a left thoracotomy and the heart was exteriorized by a gentle pressure on the right side of the rib cage. A 4-0 silk suture was quickly placed under the main left coronary artery as described by Selye et al. (1960). The heart was carefully replaced in the chest and the animal left to recover. Rectal temperature was monitored and kept constant at 37 C. The experimental protocol was initiated with a 15 minute stabilization period during which the observation of a sustained blood pressure less than 70 mmHg and or the occurrence of anhythmia led to exclusion. Myocardial ischemia was induced with coronary occlusion for 5 minutes and reperfusion allowed for 10 minutes.
# During the entire experiment BP, HR and ECG were continuously registered on a multiscriptor (R61-6CH, Medicor). Hydroxylamine derivatives, the tautomeric forms of which are represented by structures (I) and (II), were administered 5 to 60 minutes before the occlusion after i.v. and p.o. treatment, respectively. […]
# The mean duration of ventricular tachycardia (VT) and/or ventricular fibrillation (VF) during the first 3 minutes of reperfusion was analyzed by one-way analysis of variance. The incidence of VF was analyzed using a chi-square test. […] The haemodynamic variables were analyzed using Student's “t”-test. The critical level of significance was set at p<0.05. All results were expressed as a means±S.E.M. Drugs were administered i.v. in a dose of 1 mg/kgbw 5 min. before the occlusion.
# The hydroxylamine derivatives that are found to be particularly advantageous for protecting an animal against ischemic/reperfusion injury are listed below. Survival (%) indicates the percent of animals survived the effects of 5 minutes coronary occlusion.
# [4] = treatment 15 min. before 30 min. 43° C. heat stress
# [5] = treatment 100 min. after 30 min. 43° C. heat stress
Molecule,"HSP72 level relative to the stress exposed control [1, 4]",Level of hsp72 relative to the stress exposed control [2],Survival (%) [3] [%],"HSP72 level relative to the stress exposed control [1, 5]"
"5,6-dihydro-3-(4-chloro-phenyl)-5-[N-methyl-piperidinium-1-yl]-methyl-4H-1,2,4-oxadiazine iodide",++ (51-100%),+ (21-50%),–,–
CC(=NOCC(O)CNC(C)(C)C)c1cccc(C(F)(F)F)c1.CC(=O)O (stereo not shown) [1-{[3-(t-butylamino)-2-hydroxy-propoxy]-imino}-1-(m-trifluoromethyl-phenyl)-ethane acetate],+++ (>100%),+ (21-50%),–,–
"CCN(CC)CC1CON=C(c2cccnc2)O1.Cl (stereo not shown) [3-(3-piridyl)-5-diethylaminomethyl-5,6-dihydro-6H-1,4,2-dioxazine hydrochloride]",+ (21-50%),+ +,–,–
"CC(C)(C)NC1CON=C(c2cccnc2)O1 (stereo not shown) [3-(3-piridyl)-5-t-butylamino-5,6-dihydro-6H-1,4,2-dioxazine]",+ (21-50%),0 (0 indicates that the treatment altered by ±20% the stress induced hsp72 level in the cells),–,–
"Cl.OC(CON=C(Cl)c1ccco1)CN1CCCCC1 (stereo not shown) [Example 7, N-[2-hydroxy-3-(1-piperidinyl)propoxy]-2-furanecarboximidoyl chloride monohydrochloride]",–,–,80,–
"O=C(O)/C=C\C(=O)O.OC(CON=C(Cl)c1ccncc1)CN1CCCCC1 (stereo not shown) [Example 8, N-[2-hydroxy-3-(1-piperidinyl)propoxy]-4-pyridinecarboximidoyl chloride (Z)-2-butenedioate (1:1)]",–,–,100,++ (51-100%)
"CC(C)NCC(O)CON=C(Cl)c1cccc(C(F)(F)F)c1.Cl (stereo not shown) [Example 10, N-[2-hydroxy-3-[(1-methylethyl)amino]propoxy]-3-trifluoromethyl-benzene-carboximidoyl chloride monohydrochloride]",–,–,67,–
"Cl.OC(CON=C(Cl)c1cccc(C(F)(F)F)c1)CN1CCCCC1 (stereo not shown) [Example 13, N-[2-hydroxy-3-(1-piperidinyl)propoxy]-3-trifluoromethyl-benzenecarboximidoyl chloride monohydrochloride]",–,–,60,–
"C[n+]1cccc(C(Cl)=NOCC(O)C[N+]2(C)CCCCC2)c1.[I-].[I-] (stereo not shown) [Example 16, N′-[2-hydroxy-3-(1-methyl-1-piperidinium-1-yl)propoxy]-N-methyl-pyridinium-3-carboximidoyl chloride diiodide]",+++ (>100%),–,67,+++ (>100%)
"N=C(NOCC(CN1CCCCC1)OC(=O)c1ccccc1)c1cccnc1.O=C(O)/C=C\C(=O)O (stereo not shown) [Example 20, N-[2-benzoyloxy-3-(1-piperidinyl)propoxy]-3-pyridinecarboximidamide (Z)-2-butenedioate (1:1)]",–,–,100,–
"Cl.Cl.N=C(NOCC(O)CN1CCCCC1)c1nccc2ccccc12 (stereo not shown) [Example 46, N-[2-hydroxy-3-(1-piperidinyl)propoxy]-1-isoquinolinecarboximidoyl dihydrochloride]",–,+ + +,–,–
"CC(C)(C)NCC(O)CONC(=N)c1cccc(C(F)(F)F)c1.Cl.Cl (stereo not shown) [Example 47, N-[3-[(1,1-dimethylethyl)amino]-2-hydroxypropoxy]-3-trifluoromethyl-benzenecarboximidamide dihydrochloride]",–,–,100,–
CCN(CC)C(=NOCC(O)CN1CCCCC1)c1cccnc1.Cl (stereo not shown) [Example 51],+++ (>100%),–,75,–
"O=C(NOCC(O)CN1CCCCC1)c1cccc2ccccc12 (stereo not shown) [Example 54, N-[2-hydroxy-3-(1-piperidinyl)propoxy]naphthalene-1-carboxamide]",+++ (>100%),–,80,++ (51-100%)
"CCCCCCNC(=O)NOCC(O)CN1CCCCC1 (stereo not shown) [Example 58, N-hexyl-N′-[2-hydroxy-3-(1-piperidinyl)propoxy]-urea]",–,0 (0 indicates that the treatment altered by ±20% the stress induced hsp72 level in the cells),–,+++ (>100%)
"CCCCCCNC(=O)NOCCCN1CCCCC1 [Example 61, N-hexyl-N′-[3-(1-piperidinyl)propoxy]-urea]",++ (51-100%),0 (0 indicates that the treatment altered by ±20% the stress induced hsp72 level in the cells),–,–
"CC(C)(C)NC(=O)NOCC(O)CN1CCCCC1 (stereo not shown) [Example 62, N-tert-butyl-N′-[(2-hydroxy-3-(1-piperidinyl)propoxy)]-urea]",–,–,57,–
"O=C(NOCC(O)CN1CCCCC1)Nc1cccc([N+](=O)[O-])c1 (stereo not shown) [Example 63, N-(3-nitro-phenyl)-N′-[(2-hydroxy-3-(1-piperidinyl)propoxy)]-urea]",–,–,50,–
"COC(=NOCC(O)CN1CCCCC1)c1cccnc1.O=C(O)/C=C\C(=O)O (stereo not shown) [Example 66, Methyl-N-[2-hydroxy-3-(1-piperidinyl)propoxy]-3-pyridinecarboximidate (Z)-2-butenedioate (1:1)]",–,–,57,–
"O=C(O)/C=C\C(=O)O.O[C@@H](CON=C(Cl)c1cccnc1)CN1CCCCC1 [Example 77, /R/(+)-N-[2-hydroxyl-3-(1-piperidinyl)propoxy]-3-pyridinecarboximidoyl chloride (Z)-2-butenedioate (1:1)]",+++ (>100%),–,67,–
"COc1ccc(CC(Cl)=NOCC(O)CN2CCCCC2)cc1OC (stereo not shown) [N-[2-hydroxy-3-(1-piperidyl)-propoxy]-∀-(3,4-dimethoxy-phenyl)-acetimidoyl chloride]",–,–,67,–
CCN(CC)CC(O)CON=C(Cl)c1cccnc1.Cl (stereo not shown) [N-[2-hydroxy-3-(diethyl-amino)-propoxy]-3-pyridincarboximidoyl chloride hydrochloride (1:1)],–,–,62,–
O=C(O)/C=C\C(=O)O.OC(CON=C(Cl)c1cccnc1)CN1CCOCC1 (stereo not shown) [N-[2-hydroxy-3-(morpholin-1-yl-propoxy]-3-pyridincarboxamidoyl chloride (Z)-2-butendioate (1:1)],–,–,71,–
O=C(O)/C=C\C(=O)O.OC(CON=C(Cl)c1cccnc1)CN1CCCC1 (stereo not shown) [N-[2-hydroxy-3-(pyrrolidin-1-yl)-propoxy]-3-pyridincarboximidoyl chloride (Z)-2-butendioate (1:1)],–,–,67,–
CC(C)(C)NCC(O)CON=C(Cl)c1cccnc1.O=C(O)/C=C\C(=O)O (stereo not shown) [N-[2-hydroxy-3-(tert-butyl-amino)-propoxy]-3-pyridincarboxamidoyl chloride (Z)-2-butendioate (1:1)],–,–,57,–
CC(C)NCC(O)CON=C(Cl)c1cccnc1.O=C(O)/C=C\C(=O)O (stereo not shown) [N-[2-hydroxy-3-prop-2-yl-amino)-propoxy]-3-pyridincarboximidoyl chloride (Z)-butendioate (1:1)],–,–,60,–
Cl.ClC(=NOCCCN1CCCCC1)c1cccs1 [N-[3-(1-piperidinyl)-propoxy]-tiophene-2-carboximidoyl-chloride-hydrochloride],–,+ +,–,–

# From US7745465B2, “Method of enhancing cellular production of molecular chaperone, hydroxylamine derivatives useful for enhancing the chaperone production and the preparation thereof” (CytRx Corporation, priority 1995, dated 2010)
